Test results published in patent publication US10815206B2, “RIP1 inhibitory compounds and methods for making and using the same” (priority 2018, dated 2020).
Read-outs that look alike come from different tables or passages of the source.

Experiments:
[1] = system: TNF-alpha induced hypothermia; settings: dose of 30 mg/kg, according to WO 2014/125444; cited from earlier work
[2] = system: TNF-alpha induced hypothermia; assay: Acute hypothermia mouse model (TNF-alpha/zVAD-FMK induced hypothermia); type: in vivo; settings: mice, oral gavage
Description: In this example, an acute hypothermia mouse model assay was used to evaluate the ability of compounds disclosed herein to inhibit TNF-alpha induced hypothermia.
Female C57BL/6 mice are randomly grouped and weighed on Day −1. On the day of the study (Day 0), mice are administered vehicle or test article by oral gavage. Fifteen minutes after oral administration of test agents, each mouse is administered an intraperitoneal (IP) injection of solution containing recombinant human tumor necrosis factor alpha (TNF-α, 25.0 μg) and zVAD-FMK (200 μg). Body temperature is measured at 0 hours (before IP injections) and every hour via rectal probe temperature measuring device. Three (3) hours after IP injections of TNF-α and zVAD/FMK, mice are euthanized by CO2 asphyxiation and blood is collected via cardiac puncture. Serum and plasma are harvested for determination of cytokine and compound levels, respectively. Separate groups of mice (satellite mice) are included for the determination of compound levels in plasma at the time of administration of TNFa/zVAD-FMK.
(S)-5-benzyl-N-(5-methyl-4-oxo-2,3,4,5-tetrahydrobenzo[b][1,4]oxazepin-3-yl)-4H-1,2,4-triazole-3-carboxamide (WO 2014/125444), having a structure as illustrated below, was used as a comparative compound and was examined using a similar protocol as described by WO 2014/125444.

| SMILES | inhibition of TNF-alpha induced hypothermia [1] [%] | inhibition of TNF-alpha induced hypothermia ([2]; 30 mg/kg, in the inventors hands) [%] | inhibition of TNF-alpha induced hypothermia ([2]; dose of 5 mg/kg) |
| --- | --- | --- | --- |
| CN1C(=O)[C@@H](NC(=O)c2nnc(Cc3ccccc3)[nH]2)COc2ccccc21 [comparative compound, (S)-5-benzyl-N-(5-methyl-4-oxo-2,3,4,5-tetrahydrobenzo[b][1,4]oxazepin-3-yl)-4H-1,2,4-triazole-3-carboxamide] | 93 | 70 | – |
| CN1C(=O)[C@@H](NC(=O)c2n[nH]c(Cc3ccccc3)n2)COc2ccc(C#CC(C)(C)O)cc21 [Compound I-30, (S)-5-benzyl-N-(7-(3-hydroxy-3-methylbut-1-yn-1l-yl)-5-methyl-4-oxo-2,3,4,5-tetrahydrobenzo[b][1,4]oxazepin-3-yl)-1H-1,2,4-triazole-3-carboxamide] | – | – | greater than 85% |
